SMILES strings stand for the structures.

The test system of the data set is cucumber seedlings. As to the kind of experiment: Test A: phytotoxicity to the cucumber seedlings of the test units. The data set is classed as in vivo. Conditions: 500 ppm active ingredient applied to soil. As for the experimental part: Control of the southern root-knot nematode (Meloidogyne incognita) through contact and/or systemic means was evaluated in test units consisting of small open containers filled with a sandy soil mixture and cucumber seedlings. Test compounds were formulated using a solution containing 50% acetone and 50% water. […] Each test was replicated 3 times. After treatment, the test units were allowed to dry for 1 hour, after which time about 400 second-stage juvenile (J2) larvae and 800 eggs were pipetted into the soil. The test units were held at 27° C. and watered as needed for 7 days. Nematocidal efficacy was determined by the amount of root gall formation observed when compared to an untreated control. No gall formation was indicative of 100% nematode control. […] No nematode control rating was given to compounds showing significant phytotoxicity.
On to `CC(NC(=O)c1ccoc1Cl)C1CC1` (racemic) [Compound 11], for which the phytotoxicity result is “no significant phytotoxicity”.

In the case of `CC(NC(=O)c1sccc1C(C)(C)C)C(C)(C)C` (single isomer, unassigned) [Compound 92], the phytotoxicity entry is “no significant phytotoxicity”.

Turning to `CCC(C)C(C)NC(=O)c1ccoc1C` (stereo not shown) [Compound 1], the phytotoxicity entry is given as “no significant phytotoxicity”.

`Cc1occc1C(=O)N(C)C(C)C1CC1` (stereo not shown) [Compound 2]: the phytotoxicity result was “no significant phytotoxicity”.

Regarding `Cc1occc1C(=O)NC(C)C` [Compound 3], the phytotoxicity entry was “no significant phytotoxicity”.

As for `Cc1occc1C(=O)NC(C)C(C)C` (stereo not shown) [Compound 4], the phytotoxicity entry is recorded as “no significant phytotoxicity”.

For `CCCC(C)NC(=O)c1ccoc1C` (stereo not shown) [Compound 5], the phytotoxicity entry is on record as “no significant phytotoxicity”.

For the compound `Cc1occc1C(=O)NC(C)C1CC1` (stereo not shown) [Compound 6], the phytotoxicity result is “no significant phytotoxicity”.

With `Cc1occc1C(=O)NC(C)(C)C1CC1` [Compound 7], the phytotoxicity entry is listed as “no significant phytotoxicity”.

As to `CC(C)(NC(=O)c1ccoc1Cl)C1CC1` [Compound 8], the phytotoxicity result is “no significant phytotoxicity”.

As for `CC(C)C(C)(C)NC(=O)c1ccoc1Cl` [Compound 10], the phytotoxicity result was “no significant phytotoxicity”.

For the compound `COCC(C)(C)NC(=O)c1ccoc1Cl` [Compound 12], the phytotoxicity result is on record as “no significant phytotoxicity”.

With `CSCC(C)(C)NC(=O)c1ccoc1Cl` [Compound 14], the phytotoxicity result was “no significant phytotoxicity”.

As to `CCC(C)NC(=O)c1ccoc1Cl` (stereo not shown) [Compound 16], the phytotoxicity result is on record as “no significant phytotoxicity”.

`CCCC(C)NC(=O)c1ccoc1Cl` (stereo not shown) [Compound 17]: the phytotoxicity entry was “no significant phytotoxicity”.

Regarding `CC(C)(C)CC(C)(C)NC(=O)c1ccoc1Cl` [Compound 18], the phytotoxicity result was “no significant phytotoxicity”.

With `CC(C)CC(C)NC(=O)c1ccoc1Cl` (stereo not shown) [Compound 19], the phytotoxicity result was “no significant phytotoxicity”.

Turning to `CC(NC(=O)c1ccoc1Cl)C1CCCC1` (stereo not shown) [Compound 20], the phytotoxicity result is “no significant phytotoxicity”.

For the compound `CC(NC(=O)c1ccoc1Cl)C1CCCCC1` (stereo not shown) [Compound 21], the phytotoxicity entry is given as “no significant phytotoxicity”.

Take `CC(NC(=O)c1ccoc1Cl)C1(C)CC1` (stereo not shown) [Compound 22]: the phytotoxicity result is given as “no significant phytotoxicity”.

Turning to `CC(NC(=O)c1ccoc1Cl)C1CCC1` (stereo not shown) [Compound 23], the phytotoxicity result is given as “no significant phytotoxicity”.

As to `CC(NC(=O)c1ccoc1Cl)C(F)(F)F` (stereo not shown) [Compound 24], the phytotoxicity entry is given as “no significant phytotoxicity”.

`CC(C)C(C)NC(=O)c1ccoc1Cl` (stereo not shown) [Compound 26]: the phytotoxicity result is “no significant phytotoxicity”.

On to `CC(NC(=O)c1ccoc1Cl)C(C)(C)C` (stereo not shown) [Compound 27, 2-chloro-N-(1,2,2-trimethylpropyl)-3-furancarboxamide], for which the phytotoxicity result is “no significant phytotoxicity”.

Turning to `CCCCCC(C)NC(=O)c1ccoc1Cl` (stereo not shown) [Compound 29], the phytotoxicity result is “no significant phytotoxicity”.

As to `CC(C)CCCC(C)NC(=O)c1ccoc1Cl` (stereo not shown) [Compound 30], the phytotoxicity result is “no significant phytotoxicity”.

As to `CC(NC(=O)c1ccoc1Br)C1CC1` (stereo not shown) [Compound 32], the phytotoxicity entry was “no significant phytotoxicity”.

In the case of `CC(C)C(C)NC(=O)c1ccoc1Br` (stereo not shown) [Compound 33], the phytotoxicity entry is “no significant phytotoxicity”.

Consider `CCCC(C)NC(=O)c1ccoc1Br` (stereo not shown) [Compound 34], for which the phytotoxicity result was “no significant phytotoxicity”.

For `CC(NC(=O)c1ccoc1Br)C(C)(C)C` (stereo not shown) [Compound 35], the phytotoxicity entry is reported as “no significant phytotoxicity”.

As to `Cc1occc1C(=O)N[C@H](C)C1CC1` [Compound 36], the phytotoxicity result is “no significant phytotoxicity”.

For `Cc1occc1C(=O)N[C@@H](C)C1CC1` [Compound 37], the phytotoxicity result is “no significant phytotoxicity”.

In the case of `Cc1occc1C(=O)N[C@H](C)C(C)(C)C` [Compound 39], the phytotoxicity result was “no significant phytotoxicity”.

Turning to `C[C@H](NC(=O)c1ccoc1Cl)C(C)(C)C` [Compound 40, 2-chloro-N-[(1S)-1,2,2-trimethylpropyl]-3-furancarboxamide], the phytotoxicity entry is recorded as “no significant phytotoxicity”.

Take `C[C@H](NC(=O)c1ccoc1Br)C(C)(C)C` [Compound 42]: the phytotoxicity entry was “no significant phytotoxicity”.

With `CC(C)[C@H](C)NC(=O)c1ccoc1Cl` [Compound 43], the phytotoxicity result is listed as “no significant phytotoxicity”.

Take `C[C@@H](NC(=O)c1ccoc1Cl)C1CC1` [Compound 45, 2-chloro-N-[(1R)-1-cyclopropylethyl]-3-furancarboxamide]: the phytotoxicity result was “no significant phytotoxicity”.

For the compound `Cc1occc1C(=O)NC(C1CC1)C1CC1` [Compound 46], the phytotoxicity entry is recorded as “no significant phytotoxicity”.

On to `Cc1occc1C(=O)NC1(C2CC2)CC1` [Compound 47], for which the phytotoxicity entry is recorded as “no significant phytotoxicity”.

Regarding `Cc1ccsc1C(=O)NC(C)C(C)C` (stereo not shown) [Compound 48], the phytotoxicity entry is recorded as “no significant phytotoxicity”.

For the compound `CC(NC(=O)c1sccc1Br)C1CC1` (stereo not shown) [Compound 50], the phytotoxicity result is “no significant phytotoxicity”.

On to `Cc1ccsc1C(=O)NC(C1CC1)C1CC1` [Compound 52], for which the phytotoxicity entry is on record as “no significant phytotoxicity”.

As to `CCC(NC(=O)c1ccoc1Cl)C1CC1` (stereo not shown) [Compound 53], the phytotoxicity entry is given as “no significant phytotoxicity”.

For the compound `CC(NC(=O)c1ncsc1I)C1CC1` (stereo not shown) [Compound 56], the phytotoxicity result is recorded as “no significant phytotoxicity”.

Regarding `CSc1ccsc1C(=O)NC(C)C1CC1` (stereo not shown) [Compound 58], the phytotoxicity entry is recorded as “no significant phytotoxicity”.

For `Cc1ncc(C(=O)NC(C)C2CC2)s1` (stereo not shown) [Compound 60], the phytotoxicity result is “no significant phytotoxicity”.

As to `CC(NC(=O)c1ncsc1Cl)C1CC1` (stereo not shown) [Compound 62], the phytotoxicity result was “no significant phytotoxicity”.

For the compound `CC(NC(=O)c1ncsc1Br)C1CC1` (stereo not shown) [Compound 63], the phytotoxicity entry was “no significant phytotoxicity”.

For the compound `CC(NC(=O)c1sccc1C(F)(F)F)C1CC1` (stereo not shown) [Compound 65], the phytotoxicity result was “no significant phytotoxicity”.

Regarding `CCC(NC(=O)c1ccoc1C)C1CC1` (stereo not shown) [Compound 67], the phytotoxicity entry is recorded as “no significant phytotoxicity”.

For `Cc1ncsc1C(=O)NC(C)C1CC1` (stereo not shown) [Compound 70], the phytotoxicity entry is reported as “no significant phytotoxicity”.

In the case of `CC(NC(=O)c1ncsc1C(F)(F)F)C1CC1` (stereo not shown) [Compound 72], the phytotoxicity result is given as “no significant phytotoxicity”.

With `C[C@@H](NC(=O)c1ccoc1Br)C1CC1` [Compound 74], the phytotoxicity entry is “no significant phytotoxicity”.

Regarding `CC(C)[C@@H](C)NC(=O)c1ccoc1Cl` [Compound 75], the phytotoxicity result is “no significant phytotoxicity”.

Consider `CC[C@H](C)NC(=O)c1ccoc1Cl` [Compound 77], for which the phytotoxicity entry is “no significant phytotoxicity”.

As for `Cc1occc1C(=O)NC(C)CC(C)(C)C` (stereo not shown) [Compound 80], the phytotoxicity result is reported as “no significant phytotoxicity”.

Consider `CC(C)C(C)NC(=O)c1sccc1C(C)(C)C` (stereo not shown) [Compound 89], for which the phytotoxicity result is listed as “no significant phytotoxicity”.

With `CC(NC(=O)c1sccc1C(C)(C)C)C(C)(C)C` (stereo not shown) [Compound 90], the phytotoxicity result is reported as “no significant phytotoxicity”.

As to `CC(NC(=O)c1sccc1C#N)C(C)(C)C` (stereo not shown) [Compound 95], the phytotoxicity result is “no significant phytotoxicity”.

As for `Cc1occc1C(=O)N[C@H](C)C(C)C` [Compound 96], the phytotoxicity entry was “no significant phytotoxicity”.

As to `Cc1occc1C(=O)N[C@@H](C)C(C)C` [Compound 101], the phytotoxicity result is on record as “no significant phytotoxicity”.

For the origin of these results see patent US11638428B2, “Nematocidal heterocyclic amides” (CORTEVA AGRISCIENCE LLC, priority 2015, dated 2023).
